What was measured:
Format in all cases: in vivo
[1] = system: Oryza sativa subsp. indica; test: Greenhouse herbicidal activity and crop safety comparison (Test Example 2); details: Rate 150 g/ha
Procedure, shortened: (§1)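 Fresh weight inhibition, banded into grades A to E (E <20%), was rated 14-21 days after foliar spraying of 3-6 leaf plants, or 14-30 days after a soil spray applied 24 h post-sowing.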

[2] = system: Oryza sativa subsp. japonica; test: as above; details: Rate 150 g/ha
Procedure, shortened: as §1

[3] = system: Echinochloa crusgalli; test: as above; details: Rate 150 g/ha; for inhibition at 150 g/ha: Echinochloa crus-galli, read-out: Echinochloa crusgalli, control efficacy grading (fresh weight inhibition rate)
Procedure, shortened: as §1

[4] = system: Leptochloa chinensis; test: as above; details: Rate 150 g/ha; for inhibition at 150 g/ha: Dinebra chinensis, read-out: Leptochloa chinensis, control efficacy grading (fresh weight inhibition rate)
Procedure, shortened: as §1

[5] = system: Cyperus iria; test: Greenhouse herbicidal activity assay, post-emergence; details: Post-emergence test, rate 150 g a.i./hm^2, grade by fresh weight inhibition rate; for pest or weed control at 150 g/ha: Cyperus iria, read-out: Control efficacy grade, Cyperus iria
Procedure, shortened: (§2)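 Weeds and crops grown in pots of nutrient soil in a growth chamber to the 3-6 leaf stage, then foliar-sprayed and air-dried. Fresh weight inhibition scored 14-21 days after treatment and graded A (≥80%) through E (<20%).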

[6] = system: Eclipta prostrata; test: as above; details: Post-emergence test, rate 150 g a.i./hm^2, grade by fresh weight inhibition rate; for pest or weed control at 150 g/ha: Eclipta prostrata, read-out: Control efficacy grade, Eclipta prostrata
Procedure, shortened: as §2

[7] = system: Echinochloa crusgalli; test: as above; details: Post-emergence test, rate 150 g a.i./hm^2, grade by fresh weight inhibition rate; for pest or weed control at 150 g/ha: Echinochloa crus-galli, read-out: Control efficacy grade, Echinochloa crusgalli
Procedure, shortened: as §2

[8] = system: Leptochloa chinensis; test: as above; details: Post-emergence test, rate 150 g a.i./hm^2, grade by fresh weight inhibition rate; for pest or weed control at 150 g/ha: Dinebra chinensis, read-out: Control efficacy grade, Leptochloa chinensis
Procedure, shortened: as §2

[9] = system: Digitaria sanguinalis; test: as above; details: Post-emergence test, rate 150 g a.i./hm^2, grade by fresh weight inhibition rate; for pest or weed control at 150 g/ha: Digitaria sanguinalis, read-out: Control efficacy grade, Digitaria sanguinalis
Procedure, shortened: as §2

| SMILES | Oryza sativa subsp. indica, grading of fresh weight inhibition rate (crop safety) [1] | Oryza sativa subsp. japonica, grading of fresh weight inhibition rate (crop safety) [2] | Echinochloa crusgalli, control efficacy grading (fresh weight inhibition rate) [3] | Leptochloa chinensis, control efficacy grading (fresh weight inhibition rate) [4] | Control efficacy grade, Cyperus iria [5] | Control efficacy grade, Eclipta prostrata [6] | Control efficacy grade, Echinochloa crusgalli [7] | Control efficacy grade, Leptochloa chinensis [8] | Control efficacy grade, Digitaria sanguinalis [9] | inhibition at 150 g/ha [3] [%] | inhibition at 150 g/ha [4] [%] | pest or weed control at 150 g/ha [5] [%] | pest or weed control at 150 g/ha [6] [%] | pest or weed control at 150 g/ha [7] [%] | pest or weed control at 150 g/ha [8] [%] | pest or weed control at 150 g/ha [9] [%] |
| --- | --- | --- | --- | --- | --- | --- | --- | --- | --- | --- | --- | --- | --- | --- | --- | --- |
| CCc1nnc(NC(=O)c2ccc(S(C)(=O)=O)c(S(=O)(=O)C3CC3)c2Cl)o1 [Compound 3-423] | E (Fresh weight inhibition rate<20%) | E (Fresh weight inhibition rate<20%) | A (Fresh weight inhibition rate≥80% to 100%) | A (Fresh weight inhibition rate≥80% to 100%) | A (Fresh weight inhibition rate≥80% to 100%) | A (Fresh weight inhibition rate≥80% to 100%) | A (Fresh weight inhibition rate≥80% to 100%) | A (Fresh weight inhibition rate≥80% to 100%) | A (Fresh weight inhibition rate≥80% to 100%) | – | – | – | – | – | – | – |
| CCc1nnc(NC(=O)c2ccc(S(C)(=O)=O)c(S(=O)(=O)C3CCC3)c2Cl)o1 [Compound 3-428] | E (Fresh weight inhibition rate<20%) | E (Fresh weight inhibition rate<20%) | A (Fresh weight inhibition rate≥80% to 100%) | A (Fresh weight inhibition rate≥80% to 100%) | A (Fresh weight inhibition rate≥80% to 100%) | A (Fresh weight inhibition rate≥80% to 100%) | A (Fresh weight inhibition rate≥80% to 100%) | A (Fresh weight inhibition rate≥80% to 100%) | A (Fresh weight inhibition rate≥80% to 100%) | – | – | – | – | – | – | – |
| CCc1nnc(NC(=O)c2ccc(S(C)(=O)=O)c(S(=O)(=O)C3CCCC3)c2Cl)o1 [Compound 3-433] | E (Fresh weight inhibition rate<20%) | E (Fresh weight inhibition rate<20%) | A (Fresh weight inhibition rate≥80% to 100%) | A (Fresh weight inhibition rate≥80% to 100%) | A (Fresh weight inhibition rate≥80% to 100%) | A (Fresh weight inhibition rate≥80% to 100%) | A (Fresh weight inhibition rate≥80% to 100%) | A (Fresh weight inhibition rate≥80% to 100%) | A (Fresh weight inhibition rate≥80% to 100%) | – | – | – | – | – | – | – |
| C=CCS(=O)(=O)c1c(S(C)(=O)=O)ccc(C(=O)Nc2nnc(CC)o2)c1Cl [Compound 3-458] | E (Fresh weight inhibition rate<20%) | E (Fresh weight inhibition rate<20%) | A (Fresh weight inhibition rate≥80% to 100%) | A (Fresh weight inhibition rate≥80% to 100%) | A (Fresh weight inhibition rate≥80% to 100%) | A (Fresh weight inhibition rate≥80% to 100%) | A (Fresh weight inhibition rate≥80% to 100%) | A (Fresh weight inhibition rate≥80% to 100%) | A (Fresh weight inhibition rate≥80% to 100%) | – | – | – | – | – | – | – |
| CCCS(=O)(=O)c1c(S(C)(=O)=O)ccc(C(=O)Nc2nnc(C(C)C)o2)c1Cl [Compound 3-503, 2-chloro-N-(5-isopropyl-1,3,4-oxadiazol-2-yl)-4-(methylsulfonyl)-3-(propylsulfonyl)benzamide] | E (Fresh weight inhibition rate<20%) | E (Fresh weight inhibition rate<20%) | – | – | – | – | – | – | – | 80 to 100 | 80 to 100 | 80 to 100 | 80 to 100 | 80 to 100 | 80 to 100 | 80 to 100 |
| CC(C)c1nnc(NC(=O)c2ccc(S(C)(=O)=O)c(S(=O)(=O)C(C)C)c2Cl)o1 [Compound 3-508] | E (Fresh weight inhibition rate<20%) | E (Fresh weight inhibition rate<20%) | A (Fresh weight inhibition rate≥80% to 100%) | A (Fresh weight inhibition rate≥80% to 100%) | A (Fresh weight inhibition rate≥80% to 100%) | A (Fresh weight inhibition rate≥80% to 100%) | A (Fresh weight inhibition rate≥80% to 100%) | A (Fresh weight inhibition rate≥80% to 100%) | A (Fresh weight inhibition rate≥80% to 100%) | – | – | – | – | – | – | – |
| C=CCS(=O)(=O)c1c(S(C)(=O)=O)ccc(C(=O)Nc2nnc(C(C)C)o2)c1Cl [Compound 3-574] | E (Fresh weight inhibition rate<20%) | E (Fresh weight inhibition rate<20%) | A (Fresh weight inhibition rate≥80% to 100%) | A (Fresh weight inhibition rate≥80% to 100%) | A (Fresh weight inhibition rate≥80% to 100%) | A (Fresh weight inhibition rate≥80% to 100%) | A (Fresh weight inhibition rate≥80% to 100%) | A (Fresh weight inhibition rate≥80% to 100%) | B (Fresh weight inhibition rate≥260% to <80%) | – | – | – | – | – | – | – |
| CCCS(=O)(=O)c1c(S(C)(=O)=O)ccc(C(=O)Nc2nnc(C3CC3)o2)c1Cl [Compound 3-619] | E (Fresh weight inhibition rate<20%) | E (Fresh weight inhibition rate<20%) | A (Fresh weight inhibition rate≥80% to 100%) | A (Fresh weight inhibition rate≥80% to 100%) | A (Fresh weight inhibition rate≥80% to 100%) | A (Fresh weight inhibition rate≥80% to 100%) | A (Fresh weight inhibition rate≥80% to 100%) | A (Fresh weight inhibition rate≥80% to 100%) | A (Fresh weight inhibition rate≥80% to 100%) | – | – | – | – | – | – | – |
| CC(C)S(=O)(=O)c1c(S(C)(=O)=O)ccc(C(=O)Nc2nnc(C3CC3)o2)c1Cl [Compound 3-624, 2-chloro-N-(5-cyclopropyl-1,3,4-oxadiazol-2-yl)-3-(isopropylsulfonyl)-4-(methylsulfonyl)benzamide] | E (Fresh weight inhibition rate<20%) | E (Fresh weight inhibition rate<20%) | – | – | – | – | – | – | – | 80 to 100 | 80 to 100 | 80 to 100 | 80 to 100 | 80 to 100 | 80 to 100 | 80 to 100 |
| CS(=O)(=O)c1ccc(C(=O)Nc2nnc(C3CC3)o2)c(Cl)c1S(=O)(=O)C1CC1 [Compound 3-655] | E (Fresh weight inhibition rate<20%) | E (Fresh weight inhibition rate<20%) | A (Fresh weight inhibition rate≥80% to 100%) | A (Fresh weight inhibition rate≥80% to 100%) | A (Fresh weight inhibition rate≥80% to 100%) | A (Fresh weight inhibition rate≥80% to 100%) | A (Fresh weight inhibition rate≥80% to 100%) | A (Fresh weight inhibition rate≥80% to 100%) | A (Fresh weight inhibition rate≥80% to 100%) | – | – | – | – | – | – | – |
